Among the test systems are BT-549 breast; CCRF-CEM leukemia; HCT-116 colon; HCT-15 colon; HOP-92 NSCLC; HS 578T breast; KM12 colon; MCF7 breast; NCI-H23 lung; NCI-H522 lung; NCI/ADR-RES ovarian; OVCAR-3 ovarian; OVCAR-5 ovarian; OVCAR-8 ovarian; RPMI-8226 leukemia; SF-295 CNS; SN12C renal; T-47D breast; MDA-MB-231 breast; HL-60(TB) leukemia.
Common to all, as to experiment: NCI anticancer screen, dose series, 48 h

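Cultured in 96-well plates, cells were exposed to test compound for 48 hours across five concentrations. TGI is the concentration that stops growth completely.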

As for `COc1ccc(/C=C2\CN(C)CC3C2=NN(c2ccccc2)C3c2ccc(OC)cc2)cc1` (configuration not stated), the TGI in the experiment on BT-549 breast, with CCRF-CEM leukemia, in the experiment on HCT-116 colon, with HCT-15 colon, in the experiment on HOP-92 NSCLC and with HS 578T breast was over 100 µM in each case. The TGI in the experiment with KM12 colon, in the experiment on MCF7 breast, with NCI-H23 lung, in the experiment on NCI-H522 lung, with NCI/ADR-RES ovarian and in the experiment on OVCAR-3 ovarian was over 100 µM in each case. Besides, the TGI in the experiment on OVCAR-5 ovarian, in the experiment on OVCAR-8 ovarian, with RPMI-8226 leukemia, with SF-295 CNS, in the experiment on SN12C renal and in the experiment on T-47D breast was over 100 µM each time.

As for `CCn1c(=O)c2c3cc(OC(C)=O)ccc3oc2c2ccc(OC(C)=O)cc21`, the TGI with BT-549 breast is over 100 µM; in the experiment on CCRF-CEM leukemia, over 100 µM; in the experiment with HCT-116 colon it was over 100 µM; in the experiment on HCT-15 colon, over 100 µM; with HOP-92 NSCLC, 90.5 µM; in the experiment on HS 578T breast, over 100 µM. The TGI in the experiment with KM12 colon, in the experiment on MCF7 breast, with MDA-MB-231 breast, in the experiment with NCI-H23 lung, in the experiment on NCI-H522 lung and in the experiment with NCI/ADR-RES ovarian was over 100 µM in each case. For the same compound, the TGI in the experiment on OVCAR-3 ovarian is over 100 µM; in the experiment with OVCAR-8 ovarian, over 100 µM; with SF-295 CNS, 72 µM; in the experiment on SN12C renal it was over 100 µM; in the experiment on T-47D breast, 75.4 µM.

In the case of `Cc1nc2cccc([N+](=O)[O-])c2n1CCCN(C)C`, the TGI in the experiment with BT-549 breast, in the experiment with CCRF-CEM leukemia, with HCT-116 colon, in the experiment on HCT-15 colon, in the experiment on HL-60(TB) leukemia and in the experiment on HS 578T breast was over 100 µM each time. Further, the TGI with KM12 colon, with MCF7 breast, in the experiment on MDA-MB-231 breast, in the experiment with NCI-H23 lung, in the experiment on NCI-H522 lung and with NCI/ADR-RES ovarian was over 100 µM each time. In addition, the TGI with OVCAR-3 ovarian, in the experiment on OVCAR-5 ovarian, with OVCAR-8 ovarian, with RPMI-8226 leukemia, in the experiment with SF-295 CNS and in the experiment on SN12C renal was over 100 µM in each case. In addition, the TGI with T-47D breast is over 100 µM.

With `Cc1cc(=O)c2ccccc2n1CCCCCCCCCCn1c(C)cc(=O)c2ccccc21`, the TGI was 23 µM with BT-549 breast; 26.7 µM in the experiment on CCRF-CEM leukemia; 27.8 µM in the experiment with HCT-116 colon; over 100 µM in the experiment with HCT-15 colon; 15.1 µM in the experiment with HL-60(TB) leukemia; 38.5 µM in the experiment with HOP-92 NSCLC. Further, the TGI with HS 578T breast is 47.7 µM; with KM12 colon, 29.4 µM; in the experiment with MDA-MB-231 breast it was over 100 µM; in the experiment on NCI-H23 lung, 30.9 µM; in the experiment with NCI-H522 lung, 32.9 µM; with NCI/ADR-RES ovarian, over 100 µM. Also, the TGI in the experiment on OVCAR-3 ovarian was over 100 µM; in the experiment on OVCAR-5 ovarian, over 100 µM; in the experiment with OVCAR-8 ovarian, 46.7 µM; in the experiment on SN12C renal, 43.3 µM; in the experiment with T-47D breast, over 100 µM.

In the case of `O=C1C2CC=CCC2C(=O)N1n1c(Cc2ccccc2)n[nH]c1=O` (configuration not stated), the TGI in the experiment with BT-549 breast, in the experiment with CCRF-CEM leukemia, in the experiment on HCT-116 colon, in the experiment on HCT-15 colon, with HOP-92 NSCLC and in the experiment with HS 578T breast was over 100 µM throughout. The TGI in the experiment with KM12 colon, in the experiment on MCF7 breast, in the experiment with MDA-MB-231 breast, in the experiment on NCI-H23 lung, with NCI-H522 lung and with NCI/ADR-RES ovarian was over 100 µM throughout. Further, the TGI in the experiment on OVCAR-3 ovarian, in the experiment on OVCAR-5 ovarian, in the experiment on OVCAR-8 ovarian, in the experiment on RPMI-8226 leukemia, in the experiment with SF-295 CNS and in the experiment on SN12C renal was over 100 µM in each case. The TGI with T-47D breast was over 100 µM.

As to `O=C(CCc1ccc(O)cc1)NCCCNC(=O)CCc1ccc(O)cc1`, the TGI with BT-549 breast, with CCRF-CEM leukemia, with HCT-116 colon, in the experiment on HCT-15 colon, with HS 578T breast and with KM12 colon was over 100 µM throughout. Further, the TGI in the experiment on MCF7 breast, with MDA-MB-231 breast, in the experiment with NCI-H23 lung, in the experiment on NCI-H522 lung, with NCI/ADR-RES ovarian and with OVCAR-3 ovarian was over 100 µM in each case. Besides, the TGI with OVCAR-5 ovarian, in the experiment with OVCAR-8 ovarian, in the experiment on RPMI-8226 leukemia, with SF-295 CNS, with SN12C renal and in the experiment on T-47D breast was over 100 µM each time.

As for `Cc1nn(-c2ccccc2)c2nc3ccc(Cl)cc3c(-c3ccccc3)c12`, the TGI in the experiment on BT-549 breast, with CCRF-CEM leukemia, with HCT-116 colon, with HCT-15 colon, with HOP-92 NSCLC and in the experiment with HS 578T breast was over 100 µM in each case. Also, the TGI with KM12 colon, in the experiment with MCF7 breast, in the experiment with MDA-MB-231 breast, in the experiment with NCI-H23 lung, in the experiment with NCI-H522 lung and in the experiment on NCI/ADR-RES ovarian was over 100 µM each time. Moreover, the TGI in the experiment with OVCAR-3 ovarian, in the experiment on OVCAR-5 ovarian, in the experiment on OVCAR-8 ovarian, in the experiment with RPMI-8226 leukemia, with SF-295 CNS and in the experiment with SN12C renal was over 100 µM each time. The compound also came in with a TGI with T-47D breast of over 100 µM.
